Test results published in patent publication US20100298141A1, “SUBSTITUTED PYRIDINE N-OXIDE HERBICIDES” (E. I. DU PONT DE NEMOURS AND COMPANY, priority 2007, published 2010).

Experiments:
common ragweed = test: Test C pre-/postemergence test; assay type: in vivo, Ambrosia elation
Source text: (§1) Seeds of plant species selected from blackgrass (Alopecurus myosuroides), downy brome (Bromus tectorum), green foxtail (Setaria viridis), Italian ryegrass (Lolium multiflorum), wheat (Triticum aestivum), wild oat (Avena fatua), catchweed bedstraw (Galium aparine), Russian thistle (Salsola kali), […] (Cynodon dactylon), Surinam grass (Brachiaria decumbens), cocklebur (Xanthium strumarium), corn (Zea mays), crabgrass (Digitaria sanguinalis), woolly cupgrass (Eriochloa villosa), giant foxtail (Setaria faberii), Goosegrass (Eleusin indica), johnsongrass (Sorghum halepense), kochia (Kochia scoparia), lambsquarters (Chenopodium album), morningglory (Ipomoea coccinea), eastern black nightshade (Solanum ptycanthum), yellow nutsedge (Cyperus esculentus), pigweed (Amaranthus retroflexus), common ragweed (Ambrosia elation), soybean (Glycine max), common (oilseed) sunflower (Helianthus annuus), and velvetleaf (Abutilon theophrasti) were planted and treated preemergence with test chemicals formulated in a non-phytotoxic solvent mixture which included a surfactant. At the same time, plants selected from these crop and weed species and also winter barley (Hordeum vulgare), canarygrass (Phalaris minor), and chickweed (Stellaria media) were treated with postemergence applications of some of the test chemicals formulated in the same manner. Plants ranged in height from 2 to 18 cm (1- to 4-leaf stage) for postemergence treatments. […] At time of treatment, test pots were flooded to 3 cm above the soil surface, treated by application of test compounds directly to the paddy water, and then maintained at that water depth for the duration of the test. […] A dash (-) response means no test result.

kochia = test: Test C pre-/postemergence test; assay type: in vivo, Kochia scoparia
Source text: as §1

crabgrass = test: Test A pre-/postemergence greenhouse test; assay type: in vivo, Digitaria sanguinalis; settings: for Plant response rating, Crabgrass, Large: 0 to 100 scale where 0 is no effect and 100 is complete control; for Crabgrass, Large plant response rating: 0 to 100 scale
Method in brief: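 Pots of loam–sand soil sown with the test species are sprayed preemergence on the soil surface; emerged seedlings (1–2 leaves, 2–10 cm) are sprayed postemergence at the same time. The vehicle is a non-phytotoxic solvent mixture with surfactant. Injury is scored visually after ~10 d in greenhouse.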

yellow nutsedge = test: Test C pre-/postemergence test; assay type: in vivo, Cyperus esculentus
Source text: as §1

[1] = 62 g ai/ha, Preemergence, scale 0 to 100
[2] = 125 g ai/ha, preemergence, scale 0 (no effect) to 100 (complete control)
[3] = Preemergence, 31 g ai/ha, scale 0 to 100 (0 no effect, 100 complete control)
[4] = preemergence, 250 g ai/ha, scale 0 (no effect) to 100 (complete control)
[5] = Postemergence, 500 g ai/ha, 0 is no effect, 100 is complete control
[6] = Preemergence, 125 g ai/ha, 0 no effect, 100 complete control
[7] = Preemergence, 500 g ai/ha, 0 no effect, 100 complete control
[8] = Postemergence, 125 g ai/ha, 0 is no effect, 100 is complete control
[9] = Postemergence, 125 g ai/ha, scale 0 to 100, 0 no effect, 100 complete control
[10] = Postemergence, 250 g ai/ha, scale 0 to 100, 0 no effect, 100 complete control
[11] = Postemergence, 62 g ai/ha, scale 0 to 100, 0 no effect, 100 complete control

Row | SMILES | Ragweed plant response rating (common ragweed; [1]) | Ragweed plant response rating (common ragweed; [2]) | Plant response rating, Ragweed (common ragweed; [3]) | Ragweed plant response rating (common ragweed; [4]) | Kochia plant response rating (kochia; [1]) | Kochia plant response rating (kochia; [2]) | Plant response rating, Kochia (kochia; [3]) | Kochia plant response rating (kochia; [4]) | Plant response rating, Crabgrass, Large (crabgrass; Postemergence, 125 g ai/ha) | Crabgrass, Large plant response rating (crabgrass; [5]) | Crabgrass, Large plant response rating (crabgrass; [6]) | Nutsedge, Yellow plant response rating (yellow nutsedge; [1]) | Nutsedge, Yellow plant response rating (yellow nutsedge; [2]) | Plant response rating, Nutsedge, Yellow (yellow nutsedge; [3]) | Nutsedge, Yellow plant response rating (yellow nutsedge; [4]) | Plant response rating, Crabgrass, Large (crabgrass; Preemergence, 500 g ai/ha) | also measured
1 | CC(C)c1cc[n+]([O-])c([S+]([O-])Cc2c(C(F)(F)F)nn(C)c2OC(F)F)c1 (centres unmarked) [Compound 109] | 50 | 55 | 50 | 80 | 90 | 100 | 80 | 100 | 60 | 90 | 90 | 80 | 98 | 80 | 100 | – | Crabgrass, Large plant response rating (crabgrass; [7]): 100
2 | Cn1nc(C(F)(F)F)c(CS(=O)(=O)c2cc(C(C)(C)C)cc[n+]2[O-])c1OC(F)F [Compound 25] | 10 | – | 0 | – | – | – | 0 | – | – | 70 | 90 | 80 | – | 0 | – | 100 | Crabgrass, Large plant response rating (crabgrass; [8]): 10
3 | Cn1nc(C(F)(F)F)c(CS(=O)(=O)c2cccc[n+]2[O-])c1OCC(F)F [Compound 81] | 80 | 100 | 0 | 100 | 100 | 100 | 40 | 100 | 50 | 70 | 80 | 70 | 85 | 50 | 98 | 100 | –
4 | Cc1cc[n+]([O-])c(S(=O)(=O)Cc2c(C(F)(F)F)nn(C)c2OC(C)C(F)(F)F)c1 (centres unmarked) [Compound 96] | 20 | 100 | 20 | 100 | 70 | 100 | 0 | 100 | 40 | 90 | 80 | 80 | 95 | 40 | 95 | 100 | –
5 | Cn1nc(C(F)(F)F)c(C[S+]([O-])c2cccc[n+]2[O-])c1OCC(F)(F)C(F)(F)F (centres unmarked) [Compound 78] | – | – | – | – | – | – | – | – | 70 | 80 | 30 | – | – | – | – | 100 | Plant response rating (0 to 100), Ragweed (common ragweed; Postemergence, 31 g ai/ha): 0; Plant response rating (0 to 100), Ragweed (common ragweed; Postemergence, 62 g ai/ha): 0; Plant response rating, Ragweed (common ragweed; [9]): 0; Plant response rating, Ragweed (common ragweed; [10]): 0; Plant response rating (0 to 100), Kochia (kochia; Postemergence, 31 g ai/ha): 0; Plant response rating, Kochia (kochia; [11]): 0; Plant response rating, Kochia (kochia; [9]): 0; Plant response rating, Kochia (kochia; [10]): 0; Plant response rating (0 to 100), Nutsedge, Yellow (yellow nutsedge; Postemergence, 31 g ai/ha): 0; Plant response rating, Nutsedge, Yellow (yellow nutsedge; [11]): 0; Plant response rating, Nutsedge, Yellow (yellow nutsedge; [9]): 0; Plant response rating, Nutsedge, Yellow (yellow nutsedge; [10]): 0
6 | CCc1cc[n+]([O-])c([S+]([O-])Cc2c(C(F)(F)F)nn(C)c2OCC(F)(F)F)c1 (centres unmarked) [Compound 59] | 30 | 100 | – | 100 | 70 | 100 | 0 | 100 | 50 | 90 | 90 | 30 | 85 | 0 | 95 | 100 | –
7 | Cn1nc(C(F)(F)C(F)(F)F)c(C[S+]([O-])c2ccc(Cl)c[n+]2[O-])c1OCC(F)(F)F (centres unmarked) [Compound 92] | 85 | 100 | – | 100 | 100 | 100 | 50 | 100 | 70 | 90 | 80 | 90 | 90 | 90 | 100 | 90 | –
8 | C#CCOc1c(C[S+]([O-])c2cccc[n+]2[O-])c(C(F)(F)F)nn1C (centres unmarked) [Compound 76] | 20 | 100 | – | 100 | 100 | 100 | 70 | 100 | 50 | 90 | 80 | 50 | 80 | 0 | 95 | 90 | –
9 | Cn1nc(C(F)(F)F)c(C[S+]([O-])c2cc(Cl)cc[n+]2[O-])c1Cl (racemic) [Compound 39] | 0 | 90 | – | 90 | 0 | 60 | 0 | 100 | – | 80 | 90 | 50 | 85 | 50 | 85 | 90 | Crabgrass, Large plant response rating (crabgrass; [8]): 80
10 | CCc1cc[n+]([O-])c(S(=O)(=O)Cc2c(C(F)(F)F)nn(C)c2OC(F)F)c1 [Compound 102] | 80 | 85 | 75 | 95 | 70 | 100 | 70 | 100 | 60 | 90 | 90 | 50 | 50 | 0 | 85 | – | Crabgrass, Large plant response rating (crabgrass; [7]): 90
11 | Cn1nc(C(F)(F)F)c(C(Cl)S(=O)(=O)c2cccc[n+]2[O-])c1OCC(F)(F)F (racemic) [Compound 36] | 0 | 10 | 0 | 50 | – | 20 | 0 | 100 | – | 80 | 70 | 50 | 100 | 0 | 100 | 90 | Crabgrass, Large plant response rating (crabgrass; [8]): 50
